Consider 4 compounds from patent publication US5481003A, “Protein kinase C inhibitors” (Eli Lilly and Company, priority 1994, dated 1996).

One experiment relates to PKC isozymes. The conditions noted are these: cited from earlier work.
Another experiment has as its target protein kinase C eta (Homo sapiens, UniProt P24723). The experiment can be described thus: PKC Enzyme Assay, eta isozyme. In kind it is biochemical. The settings on record: 30 μM ATP, 30° C., 10 minutes. On the procedure: (§1) PKC enzymes=alpha, beta 1, beta II, gamma, delta, epsilon, eta and zeta.
(§2) Assay components in a total volume of 250 μL are the following:
(§3) Vesicles consisting of 120 μg/mL phosphatidylserine (Avanti Polar Lipids)and sufficient diacylglycerol (Avanti Polar Lipids) to activate the enzyme to maximum activity in 20 mM HEPES buffer (Sigma, St. Louis, Mo.), pH 7.5, 940 μM calcium chloride (Sigma, St. Louis, Mo.) for assaying the alpha, beta I, beta II and gamma enzyme only, 1 mM EGTA for all the enzymes, 10 mM magnesium chloride (Sigma, St. Louis, Mo.) and 30 μM (gamma-32P) ATP (DuPont). For all the enzymes either histone type HL (Worthington) or myelin basic protein is used as substrate. The assay is started by addition of protein kinase C enzyme incubated at 30° C. for 10 minutes and stopped by adding 0.5 mL of cold trichloroacetic acid (Amresco) followed by 100 μL of 1 mg/mL bovine serum albumin (Sigma, St. Louis, Mo.). The precipitate is collected by vacuum filtration on glass fiber filters employing a TOMTEC™ filtration system and quantified by counting in a beta scintillation counter.

A further experiment concerns the target T1, protein kinase C epsilon (Homo sapiens, UniProt Q02156).
T1 sequence (Q02156 1-737): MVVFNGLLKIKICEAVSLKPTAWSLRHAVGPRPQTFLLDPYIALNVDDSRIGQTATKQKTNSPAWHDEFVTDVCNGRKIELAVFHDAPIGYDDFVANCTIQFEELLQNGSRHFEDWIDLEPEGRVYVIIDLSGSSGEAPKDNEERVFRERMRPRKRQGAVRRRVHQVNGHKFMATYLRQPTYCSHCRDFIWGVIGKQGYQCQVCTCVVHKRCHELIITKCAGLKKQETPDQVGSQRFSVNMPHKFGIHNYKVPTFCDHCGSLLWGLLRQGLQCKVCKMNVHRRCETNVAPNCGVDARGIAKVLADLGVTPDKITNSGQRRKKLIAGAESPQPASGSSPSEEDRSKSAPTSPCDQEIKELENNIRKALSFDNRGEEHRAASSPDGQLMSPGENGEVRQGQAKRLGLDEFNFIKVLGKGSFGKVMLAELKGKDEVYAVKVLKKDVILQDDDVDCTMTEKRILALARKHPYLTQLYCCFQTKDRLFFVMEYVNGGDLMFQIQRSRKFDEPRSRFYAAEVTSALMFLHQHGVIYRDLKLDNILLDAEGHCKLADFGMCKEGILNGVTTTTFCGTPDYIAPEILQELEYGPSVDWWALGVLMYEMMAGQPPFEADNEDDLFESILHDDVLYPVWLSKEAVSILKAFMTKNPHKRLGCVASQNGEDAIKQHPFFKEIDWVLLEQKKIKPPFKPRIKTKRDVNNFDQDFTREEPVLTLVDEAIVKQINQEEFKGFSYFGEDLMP
The experiment is described as follows: PKC Enzyme Assay, epsilon isozyme. In kind it is biochemical. The conditions noted are these: 30 μM ATP, 30° C., 10 minutes. On the procedure:
as §1, §2, §3

The target of the next experiment is protein kinase C delta (Homo sapiens, UniProt Q05655). The experiment can be described thus: PKC Enzyme Assay, delta isozyme. In kind it is biochemical. The conditions noted are these: 30 μM ATP, 30° C., 10 minutes.
In a further experiment the target is protein kinase C beta-2 (Homo sapiens, UniProt P05771). The experiment can be described thus: PKC Enzyme Assay, beta-2 isozyme. In kind it is biochemical. The settings on record: PKC beta-2; 30 μM ATP, 30° C., 10 minutes; read-out: IC50 β2. On the procedure:
as §1, §2, §3

The next experiment addresses protein kinase C alpha (Homo sapiens, UniProt P17252). The experiment can be described thus: PKC Enzyme Assay, alpha isozyme. The settings on record: 30 μM ATP, 30° C., 10 minutes. The format is biochemical. On the procedure: as §1, §2, §3
The target of another experiment is T2, protein kinase C zeta (Homo sapiens, UniProt Q05513).
T2 sequence (Q05513 1-592): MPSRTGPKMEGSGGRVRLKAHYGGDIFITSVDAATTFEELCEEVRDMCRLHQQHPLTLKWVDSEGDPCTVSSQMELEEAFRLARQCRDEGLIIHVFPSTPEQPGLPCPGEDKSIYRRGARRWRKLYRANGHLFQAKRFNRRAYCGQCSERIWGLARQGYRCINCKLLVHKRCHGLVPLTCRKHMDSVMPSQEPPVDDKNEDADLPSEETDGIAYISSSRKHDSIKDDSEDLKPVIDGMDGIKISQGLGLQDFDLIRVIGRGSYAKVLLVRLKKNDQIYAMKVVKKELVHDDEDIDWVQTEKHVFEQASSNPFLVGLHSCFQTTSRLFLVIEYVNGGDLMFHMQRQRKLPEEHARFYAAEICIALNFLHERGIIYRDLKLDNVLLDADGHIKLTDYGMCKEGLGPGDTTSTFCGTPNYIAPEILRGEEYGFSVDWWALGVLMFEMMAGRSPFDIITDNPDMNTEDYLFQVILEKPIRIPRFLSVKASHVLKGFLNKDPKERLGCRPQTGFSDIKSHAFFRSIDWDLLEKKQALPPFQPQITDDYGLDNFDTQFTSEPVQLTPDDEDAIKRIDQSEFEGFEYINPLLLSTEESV
The experiment can be described thus: PKC Enzyme Assay, zeta isozyme. In kind it is biochemical. The conditions noted are these: 30 μM ATP, 30° C., 10 minutes. On the procedure:
as §1, §2, §3

Another experiment concerns the target protein kinase C gamma (Homo sapiens, UniProt P05129). The experiment is described as follows: PKC Enzyme Assay, gamma isozyme. The format is biochemical. The conditions noted are these: 30 μM ATP, 30° C., 10 minutes. On the procedure:
as §1, §2, §3

For the next experiment, the target named is protein kinase C beta-1 (Homo sapiens, UniProt P05771). The experiment is described as follows: PKC Enzyme Assay, beta-1 isozyme. The format is biochemical. The settings on record: PKC beta-1; 30 μM ATP, 30° C., 10 minutes; read-out: IC50 β1. On the procedure: as §1, §2, §3

Structures are written as SMILES. “Also recorded” adds a separate entry of the source. Like-named read-outs stand apart in the source and are kept apart here.

Sequence of protein kinase C eta (P24723 whole entry): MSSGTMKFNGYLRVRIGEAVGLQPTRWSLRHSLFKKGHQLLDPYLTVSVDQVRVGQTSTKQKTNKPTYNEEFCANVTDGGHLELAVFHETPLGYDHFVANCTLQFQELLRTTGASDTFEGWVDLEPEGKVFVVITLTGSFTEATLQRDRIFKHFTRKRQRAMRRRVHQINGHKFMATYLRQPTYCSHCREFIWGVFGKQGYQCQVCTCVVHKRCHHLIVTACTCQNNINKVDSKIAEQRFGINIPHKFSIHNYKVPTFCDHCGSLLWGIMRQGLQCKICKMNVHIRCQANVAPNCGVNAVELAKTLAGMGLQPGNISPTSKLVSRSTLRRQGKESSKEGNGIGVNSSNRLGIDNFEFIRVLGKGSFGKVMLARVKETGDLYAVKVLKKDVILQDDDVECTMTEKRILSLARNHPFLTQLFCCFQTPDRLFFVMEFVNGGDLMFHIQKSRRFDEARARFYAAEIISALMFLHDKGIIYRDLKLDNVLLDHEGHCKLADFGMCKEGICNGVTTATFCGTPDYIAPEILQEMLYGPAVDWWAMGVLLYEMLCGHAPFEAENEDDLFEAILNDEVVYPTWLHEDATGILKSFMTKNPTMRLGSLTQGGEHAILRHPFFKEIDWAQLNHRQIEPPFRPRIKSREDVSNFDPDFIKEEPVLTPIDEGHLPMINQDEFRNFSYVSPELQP
Sequence of protein kinase C beta-1 (P05771 whole entry): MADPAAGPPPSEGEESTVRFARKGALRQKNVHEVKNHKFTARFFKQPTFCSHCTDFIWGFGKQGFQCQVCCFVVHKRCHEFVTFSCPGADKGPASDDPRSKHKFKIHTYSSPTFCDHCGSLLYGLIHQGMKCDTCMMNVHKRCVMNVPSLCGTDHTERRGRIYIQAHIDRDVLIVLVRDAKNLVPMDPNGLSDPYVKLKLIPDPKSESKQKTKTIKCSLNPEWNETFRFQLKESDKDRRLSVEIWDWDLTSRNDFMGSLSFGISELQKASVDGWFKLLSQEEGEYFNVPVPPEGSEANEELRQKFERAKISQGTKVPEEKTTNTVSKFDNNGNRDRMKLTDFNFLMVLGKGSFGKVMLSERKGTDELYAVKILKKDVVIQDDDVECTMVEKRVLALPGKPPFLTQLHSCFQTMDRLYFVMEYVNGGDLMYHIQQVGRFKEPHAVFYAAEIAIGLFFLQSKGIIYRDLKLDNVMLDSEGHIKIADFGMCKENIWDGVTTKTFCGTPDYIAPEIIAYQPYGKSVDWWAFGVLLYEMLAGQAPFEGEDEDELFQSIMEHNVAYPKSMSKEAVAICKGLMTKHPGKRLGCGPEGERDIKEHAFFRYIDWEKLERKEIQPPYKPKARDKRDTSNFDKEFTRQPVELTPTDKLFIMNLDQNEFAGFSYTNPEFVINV
Sequence of protein kinase C delta (Q05655 whole entry): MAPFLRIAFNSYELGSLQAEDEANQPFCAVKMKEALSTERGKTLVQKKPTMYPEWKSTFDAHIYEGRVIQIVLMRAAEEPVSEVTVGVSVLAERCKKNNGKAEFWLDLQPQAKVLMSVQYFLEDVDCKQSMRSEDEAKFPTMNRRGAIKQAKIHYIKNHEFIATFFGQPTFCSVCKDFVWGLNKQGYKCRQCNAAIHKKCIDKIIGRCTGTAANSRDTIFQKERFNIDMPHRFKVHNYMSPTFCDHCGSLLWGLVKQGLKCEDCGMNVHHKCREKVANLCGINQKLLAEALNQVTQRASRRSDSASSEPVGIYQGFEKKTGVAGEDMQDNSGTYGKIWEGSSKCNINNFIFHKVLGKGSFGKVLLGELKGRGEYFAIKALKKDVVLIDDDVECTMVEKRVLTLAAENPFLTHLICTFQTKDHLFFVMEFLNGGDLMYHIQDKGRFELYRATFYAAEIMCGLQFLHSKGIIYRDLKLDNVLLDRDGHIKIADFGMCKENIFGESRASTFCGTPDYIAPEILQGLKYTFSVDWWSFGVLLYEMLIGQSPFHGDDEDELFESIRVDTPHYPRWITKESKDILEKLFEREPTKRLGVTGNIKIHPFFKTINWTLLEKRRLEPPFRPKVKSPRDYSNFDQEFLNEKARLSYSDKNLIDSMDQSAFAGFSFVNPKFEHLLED
Sequence of protein kinase C beta-2 (P05771 1-673 isoform P05771-2): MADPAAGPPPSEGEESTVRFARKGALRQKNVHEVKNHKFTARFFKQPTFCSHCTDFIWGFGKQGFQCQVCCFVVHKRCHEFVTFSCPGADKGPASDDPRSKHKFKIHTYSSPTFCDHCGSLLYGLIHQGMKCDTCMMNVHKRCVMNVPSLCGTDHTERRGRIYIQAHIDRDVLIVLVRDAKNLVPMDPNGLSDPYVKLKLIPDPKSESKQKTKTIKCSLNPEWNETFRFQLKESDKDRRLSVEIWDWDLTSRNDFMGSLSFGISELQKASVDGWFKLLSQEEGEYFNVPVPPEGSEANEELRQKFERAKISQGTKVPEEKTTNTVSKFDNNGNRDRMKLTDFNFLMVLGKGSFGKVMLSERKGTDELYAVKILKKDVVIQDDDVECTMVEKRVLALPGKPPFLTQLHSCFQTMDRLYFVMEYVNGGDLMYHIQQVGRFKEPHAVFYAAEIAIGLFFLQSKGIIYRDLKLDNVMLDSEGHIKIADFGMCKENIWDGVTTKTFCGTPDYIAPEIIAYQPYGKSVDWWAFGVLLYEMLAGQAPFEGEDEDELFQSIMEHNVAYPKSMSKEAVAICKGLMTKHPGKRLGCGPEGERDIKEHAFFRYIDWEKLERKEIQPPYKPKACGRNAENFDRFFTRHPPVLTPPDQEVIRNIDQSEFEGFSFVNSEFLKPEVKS

Regarding `CN(C)CCCn1cc(C2=C(c3c[nH]c4ccccc34)C(=O)NC2=O)c2ccccc21` [3-[1-(3-dimethylaminopropyl)-indol-3-yl]-4-(1H-indol-3-yl)-1H-pyrrole-2,5-dione], the isozyme selectivity result in the experiment with PKC isozymes (Martiny-Baron, et al., J. Biol. Chem. 268:9194-9197 (1993)) was “slight selectivity for isozymes, alpha and beta versus delta, epsilon, and zeta; also recorded: no differences in the selectivity between alpha and beta-1 isozymes”; in the experiment with PKC isozymes (Toullec et al., J. Biol. Chem. 266:15771-15781 (1991)) it was “slight selectivity for the calcium dependent isozymes; also recorded: no isozyme selectivity between alpha, beta-1, beta-2, and gamma”.

In general, IC50 refers to the concentration at which inhibition is half-maximal. For the compound `CC(C)(C)OC(=O)NCC(=O)n1cc(C2=C(c3cn(CCCN=[N+]=[N-])c4ccccc34)C(=O)NC2=O)c2ccccc21` [Example 1, 3-[1-(3-azidopropyl)-3-indolyl]-4-[(1-N-^t BOC )-glycine-3indolyl]-1H-pyrrol-2,5-dione], half-maximal inhibition against protein kinase C eta (IC50) was put at 2.6 µM.

As to `CN(C)CCCn1cc(C2=C(c3cn(C(=O)CNC(=O)OC(C)(C)C)c4ccccc34)C(=O)NC2=O)c2ccccc21` [Example 2, 3-[1-(3-N,N'-dimethylaminopropyl)-3-indolyl]-4-[(1-N-^t BOC)-glycine-3-indolyl]-1H-pyrrol-2,5-dione], the IC50 against protein kinase C epsilon worked out at 6.1 µM; against protein kinase C delta it was 2.9 µM; at protein kinase C beta-2, 0.04 µM; against protein kinase C eta it was 0.37 µM; against protein kinase C alpha, 2.3 µM; against protein kinase C zeta it was 45 µM. Moreover, the values for the IC50 on protein kinase C gamma and on protein kinase C beta-1 were 2.6 µM and 0.15 µM, respectively.

As to `CC(C)(C)OC(=O)N[C@@H](Cc1ccccc1)C(=O)n1cc(C2=C(c3cn(C(=O)[C@H](Cc4ccccc4)NC(=O)OC(C)(C)C)c4ccccc34)C(=O)NC2=O)c2ccccc21` [Example 3, 3,4-Bis[(1-N-^t BOC)-phenylalanine-3-indolyl]-1H-Pyrrol-2,5-dione], the IC50 at protein kinase C beta-1 was determined as 1 µM.
